Patent publication US20260374754A1, “N-((ISOQUINOLIN-6-YL)METHYL)-1H-PYRAZOLE-4-CARBOXAMIDE DERIVATIVES AS PLASMA KALLIKREIN INHIBITORS FOR THE TREATMENT OF HEREDITARY ANGIODEMA” (Takeda Pharmaceutical Company Limited, priority 2022, published 2026)
Where a name gives a salt, the structure may show the parent alone.

Legend:
[1] = target: human activated kallikrein enzyme (Homo sapiens, UniProt P03952); assay: Inhibition of human activated plasma kallikrein, fluorogenic PFR-AMC substrate, 500 pM enzyme format; assay type: biochemical; conditions: 500 pM activated kallikrein; 300 μM PFR-AMC; 30 min preincubation; 10 min room temperature; pH 7.5; read-out: Primary Dose Response Assay: Average EC50
Sequence of human activated kallikrein enzyme (P03952 391-638 limits assumed): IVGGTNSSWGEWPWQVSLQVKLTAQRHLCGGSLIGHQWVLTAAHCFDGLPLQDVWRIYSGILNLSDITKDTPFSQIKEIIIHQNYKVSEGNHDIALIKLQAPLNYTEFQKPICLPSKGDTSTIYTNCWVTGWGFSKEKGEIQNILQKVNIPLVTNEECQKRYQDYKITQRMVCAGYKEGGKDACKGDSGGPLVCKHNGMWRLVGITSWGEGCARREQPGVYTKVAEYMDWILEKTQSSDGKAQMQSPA
Sequence of human activated kallikrein enzyme (P03952 20-390 partner limits assumed): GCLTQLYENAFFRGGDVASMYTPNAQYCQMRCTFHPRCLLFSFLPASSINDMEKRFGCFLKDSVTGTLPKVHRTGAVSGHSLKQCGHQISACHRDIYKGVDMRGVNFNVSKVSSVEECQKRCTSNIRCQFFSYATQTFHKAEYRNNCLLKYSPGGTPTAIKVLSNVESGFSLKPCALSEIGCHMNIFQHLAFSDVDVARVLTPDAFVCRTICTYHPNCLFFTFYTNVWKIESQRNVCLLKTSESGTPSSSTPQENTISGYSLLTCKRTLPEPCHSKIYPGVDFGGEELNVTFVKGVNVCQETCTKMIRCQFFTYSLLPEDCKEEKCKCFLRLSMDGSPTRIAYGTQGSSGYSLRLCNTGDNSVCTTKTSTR
Summary of the method: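 Using fluorogenic PFR-AMC at 300 μM, cleavage by 500 pM human activated kallikrein ran 10 min at room temperature, read at 460 nm emission (380 nm excitation). Enzyme and compounds were first preincubated 30 min in 20 mM Tris pH 7.5, 150 mM NaCl, 1 mM EDTA, 0.1% PEG-400, 0.1% Triton X-100.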

[2] = target: T1, plasma kallikrein (Homo sapiens, UniProt P03952); assay: Neat Human Plasma Assay (Fluorogenic Peptide), contact pathway-activated (FXIIa) plasma; assay type: biochemical; conditions: human citrated plasma 78% final; 10 nM human FXIIa; PFR-AMC substrate; 5 minutes; room temperature
T1 construct: PFR-AMC substrate
T1 sequence (P03952 20-638): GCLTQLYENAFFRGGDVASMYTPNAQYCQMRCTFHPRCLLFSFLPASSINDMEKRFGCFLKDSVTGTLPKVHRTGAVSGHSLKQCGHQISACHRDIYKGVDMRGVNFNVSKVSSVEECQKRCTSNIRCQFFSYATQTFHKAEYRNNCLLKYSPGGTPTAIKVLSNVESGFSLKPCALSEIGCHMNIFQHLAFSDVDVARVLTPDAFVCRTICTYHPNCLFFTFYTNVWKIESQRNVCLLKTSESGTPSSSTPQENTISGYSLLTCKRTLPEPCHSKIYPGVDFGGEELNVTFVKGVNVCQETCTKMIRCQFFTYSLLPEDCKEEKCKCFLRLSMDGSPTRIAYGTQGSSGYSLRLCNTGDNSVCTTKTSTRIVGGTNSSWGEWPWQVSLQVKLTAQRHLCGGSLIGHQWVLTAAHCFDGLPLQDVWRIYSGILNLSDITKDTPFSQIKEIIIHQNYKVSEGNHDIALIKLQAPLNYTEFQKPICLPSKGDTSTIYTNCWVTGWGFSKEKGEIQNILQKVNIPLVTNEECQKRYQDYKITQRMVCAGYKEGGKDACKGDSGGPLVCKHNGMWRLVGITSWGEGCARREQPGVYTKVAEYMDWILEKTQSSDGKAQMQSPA
Protocol: To analyze inhibition of plasma kallikrein in an ex vivo setting, the potency of compounds was measure in contact pathway-activated plasma assays. In a fluorogenic peptide substrate assay, test compounds dissolved in DMSO were added to sodium citrate collected human or rat plasma in a 96-well microplate. Alternatively, citrated plasma was collected from rats administered the compounds orally or by IV. 10 nM of human FXIIa (Enzyme Research Laboratories) diluted in PKa buffer (20 mM Tris-HCl, pH 7.5, 150 mM NaCl, 1 mM EDTA, 0.1% PEG-8000, and 0.1% Triton X-100) was added to the plasma, followed by the […] of the profluorescent, synthetic plasma kallikrein substrate PFR-AMC (also diluted in PKa buffer). Final plasma concentration in the reaction was 78%. Fluorescence was immediately monitored by excitation/emission wavelengths of 360 nm/480 nm respectively over a period of 5 minutes in a microplate reader. The resulting linear increase in fluorescence emission (reflecting PKa proteolysis of PFR-AMC substrate) was fit to extract a proteolytic rate (fluorescent units over time), and this rate was subsequently plotted against compound inhibitor concentration. Resulting plots were fit to a standard 4-parameter IC50/IC90 equation to determine min/max values, IC50/90, and slope. All experimental steps were performed at room temperature.

| SMILES | EC50 [1] [nM] | IC90 [2] [nM] |
| --- | --- | --- |
| Cc1cc2c(N)nccc2c(C)c1CNc1cc(OCc2cc3cc(C4CC4)cc(CCC(C)(C)O)n3n2)ncn1 [Example 508, 4-(2-(((6-(((1-amino-5,7-dimethylisoquinolin-6-yl)methyl)amino)pyrimidin-4-yl)oxy)methyl)-5-cyclopropylpyrazolo[1,5-a]pyridin-7-yl)-2-methylbutan-2-ol] | 1 to 10 | > 5000 |
| Cc1cc2c(N)nccc2c(C)c1CNc1cc(OCc2ccc(Cn3cccn3)cc2)cnn1 [Example 432, 6-(((5-((4-((1H-pyrazol-1-yl)methyl)benzyl)oxy)pyridazin-3-yl)amino)methyl)-5,7-dimethylisoquinolin-1-amine] | < 1 | 1000 to 5000 |
| Cc1cc2c(N)nccc2c(C)c1CNc1cc(OCc2ccc(Cn3cccn3)cc2)ncn1 [Example 251, 6-(((6-((4-((1H-pyrazol-1-yl)methyl)benzyl)oxy)pyrimidin-4-yl)amino)methyl)-5,7-dimethylisoquinolin-1-amine] | < 1 | > 5000 |
| Cc1cc2c(N)nccc2c(C)c1CNc1cc(OCc2ccc3ncc(C4CC4)cc3c2)ncn1 [Example 386, 6-(((6-((3-cyclopropylquinolin-6-yl)methoxy)pyrimidin-4-yl)amino)methyl)-5,7-dimethylisoquinolin-1-amine] | 1 to 10 | > 5000 |
| Cc1cc2c(N)nccc2c(C)c1CNc1nccnc1NCc1cn2cc(C3CC3)ccc2n1 [Example 240] | 1 to 10 | 1000 to 5000 |
| Cc1ccc2cc(Cn3ccc4nnc(NCc5c(C)cc6c(N)nccc6c5C)cc43)ccc2n1 [Example 515, 5,7-dimethyl-6-(((5-((2-methylquinolin-6-yl)methyl)-5H-pyrrolo[3,2-c]pyridazin-3-yl)amino)methyl)isoquinolin-1-amine] | < 1 | 1000 to 5000 |
| Cc1cc2c(N)nccc2c(C)c1CNc1cc(OCc2cnc3ccc(C4CC4)cc3c2)ncn1 [Example 387, 6-(((6-((6-cyclopropylquinolin-3-yl)methoxy)pyrimidin-4-yl)amino)methyl)-5,7-dimethylisoquinolin-1-amine] | 1 to 10 | > 5000 |
| Cc1cc2c(N)nccc2c(C)c1CNC(=O)c1cnn(Cc2ccc(CC(=O)N3CC4CC4C3)cc2)c1 (stereo not shown) [Example 222, 1-(4-(2-(3-azabicyclo[3.1.0]hexan-3-yl)-2-oxoethyl)benzyl)-N-((1-amino-5,7-dimethylisoquinolin-6-yl)methyl)-1H-pyrazole-4-carboxamide] | < 1 | 1000 to 5000 |
| Cc1cc2c(N)nccc2c(C)c1CNc1ncncc1NCc1cn2cc(C3CC3)ccc2n1 [Example 288, N4-((1-amino-5,7-dimethylisoquinolin-6-yl)methyl)-N5-((6-cyclopropylimidazo[1,2-a]pyridin-2-yl)methyl)pyrimidine-4,5-diamine] | 1 to 10 | > 5000 |
| Cc1cc2c(N)nccc2c(C)c1CNc1nccc2cn(Cc3cn4nc(C5CC5)ccc4n3)nc12 [Example 265, 6-(((2-((6-cyclopropylimidazo[1,2-b]pyridazin-2-yl)methyl)-2H-pyrazolo[3,4-c]pyridin-7-yl)amino)methyl)-5,7-dimethylisoquinolin-1-amine] | < 1 | ≤ 1000 |
| Cc1cc2c(N)nccc2c(C)c1CNc1cc2c(cn1)ncn2Cc1nc2ccc(C3CC3)cn2n1 [Example 503, 6-(((1-((6-cyclopropyl-[1,2,4]triazolo[1,5-a]pyridin-2-yl)methyl)-1H-imidazo[4,5-c]pyridin-6-yl)amino)methyl)-5,7-dimethylisoquinolin-1-amine] | < 1 | ≤ 1000 |
| Cc1cc2c(N)nccc2c(C)c1CNc1cc(OCc2nc3ncc(C4CC4)cn3n2)ncn1 [Example 384, 6-(((6-((6-cyclopropyl-[1,2,4]triazolo[1,5-a]pyrimidin-2-yl)methoxy)pyrimidin-4-yl)amino)methyl)-5,7-dimethylisoquinolin-1-amine] | 1 to 10 | 1000 to 5000 |
| Cc1cc2c(N)nccc2c(C)c1CNc1cc(OCc2cn3cc(C4CC4)cc(C4(O)COC4)c3n2)ncn1 [Example 250, 3-(2-(((6-(((1-amino-5,7-dimethylisoquinolin-6-yl)methyl)amino)pyrimidin-4-yl)oxy)methyl)-6-cyclopropylimidazo[1,2-a]pyridin-8-yl)oxetan-3-ol] | < 1 | ≤ 1000 |
| Cc1cc2c(N)nccc2c(C)c1CNc1cc(NCc2cc3cc(C4CC4)ccn3n2)ncn1 [Example 244] | < 1 | 1000 to 5000 |
| Cc1cc2c(N)nccc2c(C)c1CNc1cc2c(cn1)c(F)cn2Cc1cn2cc(C3CC3)ccc2n1 [Example 285, 6-(((1-((6-cyclopropylimidazo[1,2-a]pyridin-2-yl)methyl)-3-fluoro-1H-pyrrolo[3,2-c]pyridin-6-yl)amino)methyl)-5,7-dimethylisoquinolin-1-amine] | 1 to 10 | 1000 to 5000 |
| Cc1cc2c(N)nccc2c(C)c1CNc1cc(OCc2cn3cc(C4CC4)ccc3n2)cnn1 [Example 426, 6-(((5-((6-cyclopropylimidazo[1,2-a]pyridin-2-yl)methoxy)pyridazin-3-yl)amino)methyl)-5,7-dimethylisoquinolin-1-amine, formic acid salt] | < 1 | 1000 to 5000 |
| Cc1cc2c(N)nccc2c(C)c1CNc1cc(OCc2nc3ccc(C4CC4)cn3n2)ncn1 [Example 388, 6-(((6-((6-cyclopropyl-[1,2,4]triazolo[1,5-a]pyridin-2-yl)methoxy)pyrimidin-4-yl)amino)methyl)-5,7-dimethylisoquinolin-1-amine] | 1 to 10 | > 5000 |
| Cc1cc2c(N)nccc2c(C)c1CNC(=O)c1cnn(Cc2cn3cc(Cl)ccc3n2)c1 [Example 101, N-((1-amino-5,7-dimethylisoquinolin-6-yl)methyl)-1-((6-chloroimidazo[1,2-a]pyridin-2-yl)methyl)-1H-pyrazole-4-carboxamide] | < 1 | ≤ 1000 |
| Cc1cc2c(N)nccc2c(C)c1CNc1cc(OCc2cc3cc(C4CC4)cnc3s2)ncn1 [Example 281, 6-(((6-((5-cyclopropylthieno[2,3-b]pyridin-2-yl)methoxy)pyrimidin-4-yl)amino)methyl)-5,7-dimethylisoquinolin-1-amine] | 1 to 10 | > 5000 |
| Cc1c(CNc2cc(OCc3ccc(Cn4cccn4)cc3)ncn2)ccc2c(N)nccc12 [Example 533, 6-(((6-((4-((1H-pyrazol-1-yl)methyl)benzyl)oxy)pyrimidin-4-yl)amino)methyl)-5-methylisoquinolin-1-amine] | 1 to 10 | > 5000 |
| Cc1cc2c(N)nccc2c(C)c1CNc1cc(OCc2cc3cc(C4CC4)cc(N4CCOC4=O)n3n2)ncn1 [Example 256, 3-(2-(((6-(((1-amino-5,7-dimethylisoquinolin-6-yl)methyl)amino)pyrimidin-4-yl)oxy)methyl)-5-cyclopropylpyrazolo[1,5-a]pyridin-7-yl)oxazolidin-2-one] | < 1 | ≤ 1000 |
| Cc1cc2c(N)nccc2c(C)c1CNc1cc(OCc2cc3cc(C4CC4)cc(CCC(=O)O)n3n2)ncn1 [Example 273, 3-(2-(((6-(((1-amino-5,7-dimethylisoquinolin-6-yl)methyl)amino)pyrimidin-4-yl)oxy)methyl)-5-cyclopropylpyrazolo[1,5-a]pyridin-7-yl)propanoic acid] | < 1 | > 5000 |
| Cc1cc2c(N)nccc2c(C)c1CNC(=O)c1cnn(Cc2nc3ccc(C4CC4)cn3n2)c1 [Example I-482, N-((1-amino-5,7-dimethylisoquinolin-6-yl)methyl)-1-((6-cyclopropyl-[1,2,4]triazolo[1,5-a]pyridin-2-yl)methyl)-1H-pyrazole-4-carboxamide] | < 1 | ≤ 1000 |
| Cc1cc2c(N)nccc2c(C)c1CNc1cc(OCc2cc(C#N)c3ncc(Cl)cc3c2)ncn1 [Example 398, 6-(((6-(((1-amino-5,7-dimethylisoquinolin-6-yl)methyl)amino)pyrimidin-4-yl)oxy)methyl)-3-chloroquinoline-8-carbonitrile] | 1 to 10 | > 5000 |
| Cc1cc2c(N)nccc2c(C)c1CNc1cc(OCc2cn3cc(C4CC4)ccc3n2)ccn1 [Example 284, 6-(((4-((6-cyclopropylimidazo[1,2-a]pyridin-2-yl)methoxy)pyridin-2-yl)amino)methyl)-5,7-dimethylisoquinolin-1-amine] | < 1 | > 5000 |
| Cc1cc2c(N)nccc2c(C)c1CNc1cc2c(cn1)cnn2Cc1cn2cc(C3CC3)ccc2n1 [Example 268, 6-(((1-((6-cyclopropylimidazo[1,2-a]pyridin-2-yl)methyl)-1H-pyrazolo[4,3-c]pyridin-6-yl)amino)methyl)-5,7-dimethylisoquinolin-1-amine] | < 1 | ≤ 1000 |
